Patent US5496853A, “Benzoxa condensed ring compounds, process for producing the same and pharmaceutical composition comprising the same” (Teijin Limited, priority 1990, dated 1996)
Counter-ions that a name gives are not always drawn.

These molecules were tested against T1, ACAT (Oryctolagus cuniculus, UniProt G1SFD9) (assay: ACAT enzyme inhibitory activity of rabbit intestinal mucosa). Details: rabbit intestinal mucosa microsome, [1-14C] oleoyl CoA, 37° C., pH 7.4.
T1 construct: from tissue; host or cells: domestic rabbit intestinal mucosa, microsome fraction (105,000×g precipitate)
T1 sequence (G1SFD9 1-524): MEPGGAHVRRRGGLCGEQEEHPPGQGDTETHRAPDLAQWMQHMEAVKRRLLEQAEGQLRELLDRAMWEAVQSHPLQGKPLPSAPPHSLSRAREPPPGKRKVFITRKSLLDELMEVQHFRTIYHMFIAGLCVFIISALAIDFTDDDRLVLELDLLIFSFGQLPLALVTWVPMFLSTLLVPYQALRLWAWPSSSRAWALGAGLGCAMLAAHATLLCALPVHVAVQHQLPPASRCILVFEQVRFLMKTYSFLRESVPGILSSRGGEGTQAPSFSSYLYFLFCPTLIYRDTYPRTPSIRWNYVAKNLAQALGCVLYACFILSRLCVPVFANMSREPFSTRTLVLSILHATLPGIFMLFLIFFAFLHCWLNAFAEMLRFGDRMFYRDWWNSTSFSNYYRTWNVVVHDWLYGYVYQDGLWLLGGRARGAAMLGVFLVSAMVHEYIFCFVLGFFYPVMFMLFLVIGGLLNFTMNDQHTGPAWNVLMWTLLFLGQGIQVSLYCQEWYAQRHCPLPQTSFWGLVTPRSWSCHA
Format: biochemical
Protocol: Measurement of ACAT enzyme inhibitory activity (measurement of ACAT enzyme inhibitory activity of rabbit intestinal mucosa)
Preparation of a domestic rabbit intestinal mucosa microsome and measurement of the ACAT enzyme activity were conducted by slightly modifying a method established by Salone and Field (see Biochemica et Biophysica, vol. 712, 557 (1982).
The supernatant was further centrifuged at 105,000×g and a temperature of 4° C. for one hour to provide a precipitate. The precipitate was resuspended in the buffer A to provide a microsome fraction.
A 1 %v/v dimethylsulfoxide solution of each specimen compound in a predetermined concentration was added to the buffer A containing 43 μM serum albumin and 0.5 mg/ml microsome fraction, and the mixture was heated at 37° C. for 5 min.
Then, 43 μM oleoyl CoA containing [1^-14 C] oleoyl CoA (3.7 kB) was added thereto, the mixture was heated at 37° C. for 10 rain, and chloroform/methanol (2/1) containing 10 mg/ml cholesteryl oleate was added thereto to terminate the reaction.
0.111 kB of [^3 H] cholesteryl oleate and 1N hydrochloric acid were added thereto, and the mixture was stirred. The cholesteryl oleate extracted into the chloroform layer was isolated by thin-layer chromatography, and the radioactivity was measured as the ACAT activity.

Compound	IC50 [nM]
CCCCCCCCCCC1(C(=O)Nc2cccc3nc(-c4cccnc4)oc23)CCCC1 [Ex. 2, N-[2-(3-pyridyl)benzoxazol-7-yl]-1-decylcyclopentanecarboxamide]	830
Cc1ccc2c(c1NC(=O)NCC1(c3ccccc3)CCCC1)OC(C)(C)C2 [Ex. 3]	340
CCCCCCCCCCC(C)(C)C(=O)Nc1c(C)c([N+](=O)[O-])c(C)c2c1OC(C)(C)C2 [Ex. 6, N-(2,2,4,6-tetramethyl-5-nitro-2,3-dihydrobenzofuran-7-yl)-2,2-dimethyldodecaneamide]	19
Cc1cc(C)c(NC(=O)C(C)(C)CCCCCOc2ccc([N+](=O)[O-])cc2)c2c1CC(C)(C)O2 [Ex. 10, N-(2,2,4,6-tetramethyl-2,3-dihydrobenzofuran-7-yl)-[2,2-dimethyl-7-(4-nitrophenyloxy)]heptaneamide]	230
Cc1cc2nc(-c3ccccc3)oc2c(NC(=O)NCC2(c3ccccc3)CCCC2)c1C [Ex. 13]	400
CCCCCCCCCCC1(C(=O)Nc2cccc3nc(-c4ccccc4)oc23)CCCC1 [Ex. 18]	500
CCCCCCCCCCCCNC(=O)Nc1c(C)ccc2c1OC(C)(C)C2 [Ex. 23]	220
CCCCCCCCCCNc1ccc(C(=O)Nc2c(C)cc(C)c3c2OC(C)(C)C3)cc1 [Ex. 33]	110
Cc1ccc2c(c1NC(=O)C(C)(C)CCCCOc1ccc(C(C)(C)C)cc1)OC(C)(C)C2 [Ex. 37]	340
Cc1cc(C)c(NC(=O)C(C)(C)CCCCCCBr)c2c1CC(C)(C)O2 [Ex. 38]	180
CCCCCCCCC(C)(C)C(=O)Nc1c(C)cc(C)c2c1OC(C)(C)C2 [Ex. 39]	72
CCCc1ccc(CCCC(C)(C)C(=O)Nc2c(C)cc(C)c3c2OC(C)(C)C3)cc1 [Ex. 44]	66
Cc1cc(C)c(NC(=O)C(C)(C)CCCc2ccc(CC(C)C)cc2)c2c1CC(C)(C)O2 [Ex. 45]	28
CCCCCCOc1ccc(CCCC(C)(C)C(=O)Nc2c(C)cc(C)c3c2OC(C)(C)C3)cc1 [Ex. 46]	34
Cc1cc(C)c(NC(=O)C(C)(C)CCCCOCCCC(C)C)c2c1CC(C)(C)O2 [Ex. 47]	190
Cc1cc(C)c(NC(=O)C(C)(C)CCCCCCOCCCC(C)C)c2c1CC(C)(C)O2 [Ex. 48]	57
Cc1cc(C)c(NC(=O)C(C)(C)CCCCCCOCC(C)(C)C)c2c1CC(C)(C)O2 [Ex. 50]	45
Cc1cc(C)c(NC(=O)C(C)(C)CCCCCOCCc2ccccc2)c2c1CC(C)(C)O2 [Ex. 54]	100
Cc1cc(C)c(NC(=O)C(C)(C)CCCCCOCCOC(C)C)c2c1CC(C)(C)O2 [Ex. 55]	170

Compound	IC50 [nM]
COCCCCCCC(C)(C)C(=O)Nc1c(C)cc(C)c2c1OC(C)(C)C2 [Ex. 56]	330
Cc1cc(C)c(NC(=O)C(C)(C)CCCCOc2ccc(C(C)(C)C)cc2)c2c1CC(C)(C)O2 [Ex. 58]	170
Cc1ccc(OCCCCCC(C)(C)C(=O)Nc2c(C)cc(C)c3c2OC(C)(C)C3)cc1 [Ex. 62]	64
Cc1cc(C)c(NC(=O)C(C)(C)CCCCCOc2ccc(Cl)cc2Cl)c2c1CC(C)(C)O2 [Ex. 63]	220
Cc1ccc(OCCCCCC(C)(C)C(=O)Nc2c(C)cc(C)c3c2OC(C)(C)C3)c(C)c1 [Ex. 64]	910
Cc1cc(C)c(NC(=O)C(C)(C)CCCCCOc2ccc(C(C)C)cc2)c2c1CC(C)(C)O2 [Ex. 65]	86
Cc1cc(C)c(NC(=O)C(C)(C)CCCCCOc2ccc(N)cc2)c2c1CC(C)(C)O2 [Ex. 66]	460
Cc1cc(C)c(NC(=O)C(C)(C)CCCCCOc2ccc(N(C)C)cc2)c2c1CC(C)(C)O2 [Ex. 67]	190
Cc1cc(C)c(NC(=O)C(C)(C)CCCCCCOc2ccc(F)cc2)c2c1CC(C)(C)O2 [Ex. 70]	110
Cc1cc(C)c(NC(=O)C(C)(C)CCCCCCOc2ccc(N(C)C)cc2)c2c1CC(C)(C)O2 [Ex. 71]	130
Cc1cc(C)c(NC(=O)C(C)(C)CCCCCCNCc2ccc(Cl)cc2)c2c1CC(C)(C)O2 [Ex. 73 (HCl salt)]	340
Cc1cc(C)c(NC(=O)C(C)(C)CCCCCCN(C)Cc2ccccc2)c2c1CC(C)(C)O2 [Ex. 74 (HCl salt)]	330
Cc1cc(C)c(NC(=O)C(C)(C)CCCCCCN(C)Cc2ccc(Cl)cc2)c2c1CC(C)(C)O2 [Ex. 75]	120
Cc1cc(C)c(NC(=O)C(C)(C)CCCCCCN2CCN(Cc3ccccc3)CC2)c2c1CC(C)(C)O2 [Ex. 79]	350
CCCCCCCCCCOc1ccc(C(=O)C(C)(C)C(=O)Nc2c(C)cc(C)c3c2OC(C)(C)C3)cc1 [Ex. 80]	40
CCCCCCCCCCCCCCCC(=O)Nc1c(C)cc(C)c2c1OC(C)(C)C2 [Ex. 81]	260
CCCCCCCCCCCCCCCC(=O)Nc1c(C)c(Cl)c(C)c2c1OC(C)(C)C2 [Ex. 83]	72
CCCCCCCCCCOc1ccc(C(=O)CC(=O)Nc2c(C)cc(C)c3c2OC(C)(C)C3)cc1 [Ex. 88, N-(2,2,4,6-tetramethyl-2,3-dihydrobenzofuran-7-yl)3-(4-decyloxyphenyl)-3-oxpropaneamide]	110

These molecules were tested on serum cholesterol (assay: percentage change of serum cholesterol in cholesterol-fed rats). Details: Rattus norvegicus, 72 h; 1 mg/kg oral, once a day for three days, cholesterol-enriched feed, vs control.
Format: in vivo, Male Wistar rats
Source text: Measurement of percentage change of serum cholesterol
Male Wistar rats having a weight of 200 g were preliminarily bred for 7 days while they freely ingested a normal feed (CE-2 manufactured by CLEA Japan Inc.).
Thereafter, they were bred for 3 days while they freely ingested a feed enriched with cholesterol and fat (2% cholesterol, 1% cholic acid, 20% casein, 45% fine granulated sugar, 12% coconut oil, 4% KC flock, 1% mixed vitamin, 7% mixed mineral and 8% dried fish powder; a product of CLEA Japan Inc.). During the cholesterol loading period, the test compound of the present invention was orally administered to the above test animals at a dose of 0.1 to 10 mg per kg of the weight once a day for three days. On the other hand, the excipient alone was administered to the control animals.
After 8 hrs from the last administration, the test animals were fasted. 16 hr after the initiation of the fasting, these test animals were slaughtered. The serum cholesterol level was measured for each animal.
The results were compared with those of the control and are given as percentage serum cholesterol (%) in Table 3.
Percentage change of serum cholesterol (%)={(A-B)/B}×100
wherein A represents the total cholesterol level of serum in the group of rats to which the test compound was administered; and B represents the total cholesterol level of serum in the control group of rats.

Compound	change in vivo at 1 mg/kg [%]
CCCCCCCCCCC(C)(C)C(=O)Nc1c(C)cc(C)c2c1OC(C)(C)C2 [Ex. 5, N-(2,2,4,6-tetramethyl-2,3-dihydrobenzofuran-7-yl)-2,2-dimethyldodecaneamide]	-61
CCCCCCCCCCC(C)(C)C(=O)Nc1c(C)c(N(C)C)c(C)c2c1OC(C)(C)C2 [Ex. 8, N-(5-dimethylamino-2,2,4,6-tetramethyl-2,3-dihydrobenzofuran-7-yl)-2,2-dimethyldodecaneamide]	-71
CCCOCCCCCCOc1ccc(C(=O)Nc2c(C)cc(C)c3c2OC(C)(C)C3)cc1 [Ex. 29]	-23
Cc1cc(C)c(NC(=O)C(C)(C)CCCCCc2ccccc2)c2c1CC(C)(C)O2 [Ex. 42]	-44
Cc1cc(C)c(NC(=O)C(C)(C)CCCc2ccc(CC(C)C)cc2)c2c1CC(C)(C)O2 [Ex. 45]	-58
Cc1cc(C)c(NC(=O)C(C)(C)CCCCCCOCC(C)C)c2c1CC(C)(C)O2 [Ex. 49]	-50
Cc1cc(C)c(NC(=O)C(C)(C)CCCCOc2ccc(Cl)cc2)c2c1CC(C)(C)O2 [Ex. 59]	-43
Cc1cc(C)c(NC(=O)C(C)(C)CCCCCOc2ccc(Cl)cc2)c2c1CC(C)(C)O2 [Ex. 61]	-64
Cc1ccc(OCCCCCC(C)(C)C(=O)Nc2c(C)cc(C)c3c2OC(C)(C)C3)cc1 [Ex. 62]	-18
Cc1cc(C)c(NC(=O)C(C)(C)CCCCCCOc2ccc(Cl)cc2)c2c1CC(C)(C)O2 [Ex. 68]	-75
Cc1cc(C)c(NC(=O)C(C)(C)CCCCCCOc2ccc(N(C)C)cc2)c2c1CC(C)(C)O2 [Ex. 71]	-49

Same assay, conditions: Rattus norvegicus, 72 h; 10 mg/kg oral, once a day for three days, cholesterol-enriched feed, vs control

Compound	change in vivo at 10 mg/kg [%]
CCCCCCCCCCC1(C(=O)Nc2c(C)c(C)cc3nc(-c4ccccc4)oc23)CCCC1 [Ex. 20]	-46
CCCCCCCCCCC1(C(=O)Nc2c(C)ccc3c2OC(C)(C)C3)CCCC1 [Ex. 36]	-52
Cc1cc(C)c(NC(=O)C(C)(C)CCCCCCOCC(C)(C)C)c2c1CC(C)(C)O2 [Ex. 50]	-54
Cc1cc(C)c(NC(=O)C(C)(C)CCCCOCc2ccccc2)c2c1CC(C)(C)O2 [Ex. 53]	-50
Cc1cc(C)c(NC(=O)C(C)(C)CCCCOc2ccc(C(C)(C)C)cc2)c2c1CC(C)(C)O2 [Ex. 58]	-27
